Laboratory results as given in US20200002377A1, “COMPOUNDS USEFUL FOR THE TREATMENT AND/OR CARE OF THE SKIN, HAIR, NAILS AND/OR MUCOUS MEMBRANES” (LUBRIZOL ADVANCED MATERIALS, INC., priority 2016, published 2020).

How the values were obtained:
[1] = system: Staphylococcus epidermidis; experiment: Adherence of Staphylococcus epidermidis in keratinocytes (HaCaT) in competition with S. aureus bioparticles; assay type: cell-based; conditions: 50 μg/ml, 24 h, basal = 0
Method: After that treatment, cells are washed with phosphate-buffered saline (PBS, Sigma) and are then incubated with a solution of Staphylococcus epidermidis (ATCC®12228™, Culture Collections) treated with green-fluorescence calcein AM (Life technologic) and Alexa Fluor 594™ Bioparticles Staphylococcus aureus (ThermoFisher) in PBS for 30 minutes at 37° C. and protected from light. At the end of the incubation period, cells are washed with PBS and fixed in 4% (v/v) paraformaldehyde (PFA, Sigma) for 30 minutes. After rinsing with PBS, the nuclei are stained with Hoechst 33342, trihydrochloride trihydrate (ThermoFisher) in PBS for 10 minutes before analysis.
Cellular imaging is performed by fluorescence microscopy using the Operetta® High Content Imaging System (PerkinElmer). From each fluorescence image, Staphylococcus epidermidis is quantified as a number of spots and normalized against the number of keratinocyte nuclei and the total bacteria number (understood as the addition of detected S. epidermidis spots and S. aureus bioparticles). Each value obtained is normalized respect to basal conditions (non-treated keratinocytes). An image is taken in three different fields per well. 12 representative images from each condition are analyzed with Harmony software (PerkinElmer).
The normalized percentage of Staphylococcus epidermidis respect to basal conditions in treated keratinocytes is represented in Table 17.

[2] = system: Nuclear Factor Kappa B subunit 1 (NFKB1); experiment: Innate immune response gene expression in HEKa, real time PCR array; assay type: cell-based, human; conditions: 50 μg/ml, 24 h
Method: HEKa cells (Life Technologies) are seeded at 6.0×10^5 cells/well in 6-well plates and incubated in culture medium Epillfe™ with defined Growth Supplement (EDGS, Life Technologies), at 37° C. in a water-saturated atmosphere of 95% air and 5% CO2. After 24 hours of incubation under these conditions, medium is removed and cells are incubated with 50 μg/ml (w/v) of a peptide of the invention (see Table 16) in fresh culture medium keeping two wells where HEKa cells are incubated with medium only (basal conditions) at 37° C. and 5% CO2.
After 24 h of incubation, the cells are lysed directly in the wells following the protocol described on the RNeasy™ Mini kit (Qiagen) according to the manufacturer's protocol. The lysed cells are homogenized and the RNases are inactivated. The genomic DNA is removed from the samples by using gDNA Eliminator spin columns (Qiagen). Then the samples are passed through special RNA binding columns (Qiagen) and, after several microcentrifugation washes to eliminate contaminants and impurities, the purified RNA is eluted with 50 μl of ultrapure water. Quantification and analysis of purity of RNA samples are performed after RNA elution with a biophotometer (Eppendorf). 1 μg of high-quality RNA is retrotranscribed with iScript™ advanced (BioRad) in a final volume of 20 μl·Complete reaction mix is incubated in a thermal cycler (Eppendorf) at 42° C. for 30 minutes, and the reactions are stopped at 85° C. for 5 minutes. Complementary DNA is amplified by qPCR in a real-time PCR thermocycler (BioRad) using SYBR®Green supermix (BioRad) and a customized plate for use with SYBR®Green (BioRad). SYBR®Green binds to double-stranded DNA molecules and emits fluorescence which is quantified and is proportional to the amount of the product in the PCR reaction. Cycling conditions in BioRad CFX96™ instrument are 95° C. for 3 minutes, followed by 40 cycles of denaturing at 95° C. for 5 seconds, annealing and elongation at 60° C. for 30 seconds. GAPDH (Glyceraldehyde 3-phosphate dehydrogenase), TBP (TATA box binding protein) and HRPT1 (hypoxanthine phosphoribosyltransferase 1) are used as endogenous controls. Fold change relative to the expression of the sample genes and reference genes is calculated using normalized expression (ΔΔ(Ct)) method with default threshold values using CFX Manager Software (BioRad).
Genes analyzed are Chemokine (C-C motif) Ligand 5 (CCL5), Myeloid Differentiation primary response gene 88 (MyD88), Nuclear Factor Kappa B subunit 1 (NFKB1) and interferon Regulatory Factor 3 (IRF3).

[3] = system: Reconstructed Human Epidermis (RHE); experiment: Lipidomic profile (UPLC-MS) of in vitro epidermal model; assay type: cell-based; conditions: 50 μg/ml, 24 hours, vs basal conditions
Method: The SkinEthic human tissue models (EpiSkin™) are removed from their agarose-nutrient solution in the multiwell plate immediately after arrival and are placed in a 6-well plate in which each well has previously been filled with SkinEthic Growth Medium (EpiSkin™). After overnight incubation at 37° C., 5% CO2, Reconstructed Human Epidermis (RHE) are treated with 50 μg/ml of peptides Ac-Glu-Glu-Met-Gln-Arg-Arg-NH2 (PEP-1), Ac-Glu-Glu-Met-Gln-Arg-Arg-Ala-NH2 (PEP-2) or Ac-Glu-Glu-Met-Gln-Arg-Arg-Ala-Asp-NH2 (PEP-3) or medium (basal conditions) for 24 hours at 37° C. and 5% CO2. After the 24 hours treatment, RHE are frozen and stored at −20° C. Each treatment is applied to five RHE per condition.
Epidermal membrane model samples are thawed and removed from the inserts using a scalpel and transferred to homogenization tubes. Samples are mixed with sodium chloride (50 mM) and chloroform/methanol (2/1) (v:v) and homogenized. The extraction solvent is spiked with metabolites not detected in unspiked human serum extracts. After homogenizing the samples, extracts are incubated for 1 hour at −20° C. and centrifuged at 18,000×g for 15 minutes. The organic phase is then collected and dried under vacuum. Dried extracts are finally reconstituted in acetonitrile/isopropanol (1/1) (v:v), centrifuged at 18,000×g for 5 minutes and transferred to vials for UPLCs-MS analysis.
All data are processed using the TargetLynx™ application manager for MassLynx™ 4.1 software (Waters Corp., Milford, USA). A set of predefined retention time, mass-to-charge ratio pairs, Rt-m/z, corresponding to metabolites included in the analysis are fed into the program. Associated extracted ion chromatograms (mass tolerance window=0.05 Da) are then peak-detected and noise-reduced in both the LC and MS domains such that only true metabolite related features are processed by the software. A list of chromatographic peak areas is then generated for each sample injection and value respect to basal conditions is calculated.
Average of five values obtained for each peptide in relation to those obtained for basal conditions (without peptide in the medium) are shown in Table 11.

Row | Substance | S. epidermidis (%), normalized percentage respect to basal conditions [1] | NFKB1 fold induction respect to basal conditions [2] | other results
1 | Ac-EELQRRAD-NH2 [PEP-10, Ac-Glu-Glu-Leu-Gln-Arg-Arg-Ala-Asp-NH2] | 11.54% | 2.46 | 
2 | Ac-EEMDRRA-NH2 [PEP-42, Ac-Glu-Glu-Met-Asp-Arg-Arg-Ala-NH2] | 12.36% | 2.70 | 
3 | Ac-EEMDRRAD-NH2 [PEP-13, Ac-Glu-Glu-Met-Asp-Arg-Arg-Ala-Asp-NH2] | 21.79% | 2.60 | 
4 | Ac-EEMERR-NH2 [PEP-47, Ac-Glu-Glu-Met-Glu-Arg-Arg-NH2] | 2.91% | 2.12 | 
5 | Ac-EEMERRA-NH2 [PEP-39, Ac-Glu-Glu-Met-Glu-Arg-Arg-Ala-NH2] | 71.97% | 2.62 | 
6 | Ac-EEMERRAD-NH2 [PEP-11, Ac-Glu-Glu-Met-Glu-Arg-Arg-Ala-Asp-NH2] | 4.24% | 2.63 | 
7 | Ac-EEMERRAD-OH [PEP-31, Ac-Glu-Glu-Met-Glu-Arg-Arg-Ala-Asp-OH] | 29.41% | 2.24 | 
8 | Ac-EEMNRR-NH2 [PEP-48, Ac-Glu-Glu-Met-Asn-Arg-Arg-NH2] | 18.02% | 1.48 | 
9 | Ac-EEMNRRAD-NH2 [PEP-12, Ac-Glu-Glu-Met-Asn-Arg-Arg-Ala-Asp-NH2] | 14.00% | 2.58 | 
10 | Ac-EEMQKK-NH2 [PEP-54, Ac-Glu-Glu-Met-Gln-Lys-Lys-NH2] | 10.91% | 2.15 | 
11 | Ac-EEMQKR-NH2 [PEP-46, Ac-Glu-Glu-Met-Gln-Lys-Arg-NH2] | 3.97% | 2.03 | 
12 | Ac-EEMQRHAD-NH2 [PEP-20, Ac-Glu-Glu-Met-Gln-Arg-His-Ala-Asp-NH2] | 16.66% | 2.71 | 
13 | Ac-EEMQRK-NH2 [PEP-45, Ac-Glu-Glu-Met-Gln-Arg-Lys-NH2] | 5.48% | 2.21 | 
14 | Ac-EEMQRK-OH [PEP-62, Ac-Glu-Glu-Met-Gln-Arg-Lys-OH] | 6.78% | 1.40 | 
15 | Ac-EEMQRR-NH2 [PEP-1, Ac-Glu-Glu-Met-Gln-Arg-Arg-NH2] | 13.63. % | 2.59 | Cer_AP48 N-(alpha-hydroxyacyl) phytosphingosines [3]: 1.21 fold change; Cer_NP48 N-acyl phytosphingosines [3]: 1.21 fold change; Cer_NP49 N-acyl phytosphingosines [3]: 1.17 fold change; Cer_NP50 N-acyl phytosphingosines [3]: 1.18 fold change; Cer_NP51 N-acyl phytosphingosines [3]: 1.44 fold change; Cer_NS50 N-acyl sphingosines [3]: 1.20 fold change; Cer_NS51 N-acyl sphingosines [3]: 1.14 fold change; Cer_NS52 N-acyl sphingosines [3]: 1.35 fold change; Cer_NdS47 N-acyl dihydrosphingosines [3]: 1.14 fold change; Cer_NdS48 N-acyl dihydrosphingosines [3]: 1.21 fold change; Cer_NdS49 N-acyl dihydrosphingosines [3]: 1.38 fold change; Cer_NdS50 N-acyl dihydrosphingosines [3]: 1.42 fold change
16 | Ac-EEMQRRAD-OH [PEP-4, Ac-Glu-Glu-Met-Gln-Arg-Arg-Ala-Asp-OH] | 25.36% | 2.55 | 

Row | Substance | S. epidermidis (%), normalized percentage respect to basal conditions [1] | NFKB1 fold induction respect to basal conditions [2] | other results
17 | Ac-EEMQRRAE-NH2 [PEP-17, Ac-Glu-Glu-Met-Gln-Arg-Arg-Ala-Glu-NH2] | 11.33% | 2.32 | 
18 | Ac-EEMQRRAN-NH2 [PEP-18, Ac-Glu-Glu-Met-Gln-Arg-Arg-Ala-Asn-NH2] | 26.35% | 2.69 | 
19 | Ac-EEMQRRAQ-NH2 [PEP-19, Ac-Glu-Glu-Met-Gln-Arg-Arg-Ala-Gln-NH2] | 81.69% | 2.73 | 
20 | Ac-EEMQRRG-NH2 [PEP-38, Ac-Glu-Glu-Met-Gln-Arg-Arg-Gly-NH2] | 49.00% | 2.40 | 
21 | Ac-EEMQRRGD-NH2 [PEP-16, Ac-Glu-Glu-Met-Gln-Arg-Arg-Gly-Asp-NH2] | 51.11% | 2.47 | 
22 | Ac-EEMQRRKD-NH2 [PEP-24, Ac-Glu-Glu-Met-Gln-Arg-Arg-Lys-Asp-NH2] | 10.41% | 2.46 | 
23 | Ac-EEMQRRPD-NH2 [PEP-22, Ac-Glu-Glu-Met-Gln-Arg-Arg-Pro-Asp-NH2] | 81.90% | 2.69 | 
24 | Ac-EEMQRRS-NH2 [PEP-37, Ac-Glu-Glu-Met-Gln-Arg-Arg-Ser-NH2] | 7.49% | 2.88 | 
25 | Ac-EEMQRRSD-NH2 [PEP-15, Ac-Glu-Glu-Met-Gln-Arg-Arg-Ser-Asp-NH2] | 15.10% | 2.57 | 
26 | Ac-EEMQRRT-NH2 [PEP-41, Ac-Glu-Glu-Met-Gln-Arg-Arg-Thr-NH2] | 35.69% | 2.71 | 
27 | Ac-EEMQRRTD-NH2 [PEP-21, Ac-Glu-Glu-Met-Gln-Arg-Arg-Thr-Asp-NH2] | 16.21% | 2.39 | 
28 | Ac-NEMQRRA-NH2 [PEP-43, Ac-Asn-Glu-Met-Gln-Arg-Arg-Ala-NH2] | 30.17% | 2.56 | 
29 | Ac-QEMQRRAD-NH2 [PEP-9, Ac-Gln-Glu-Met-Gln-Arg-Arg-Ala-Asp-NH2] | 21.36% | 2.66 | 
30 | Ac-QEMQRRAD-OH [PEP-32, Ac-Gln-Glu-Met-Gln-Arg-Arg-Ala-Asp-OH] | 13.89% | 2.56 | 
31 | H-EEMQRR-NH2 [PEP-56, H-Glu-Glu-Met-Gln-Arg-Arg-NH2] | 15.75% | 1.90 | 
32 | H-EEMQRRAE-NH2 [PEP-26, H-Glu-Glu-Met-Gln-Arg-Arg-Ala-Glu-NH2] | 18.10% | 2.55 | 
